Experiments:
TRPM4 = assay: Reduction of TRPM4 expression by antisense oligodeoxynucleotides; type: in vivo; conditions: TRPM4-AS1 and TRPM4-AS2 used together; phosphorothioated
Source text: (§1) In certain embodiments of the invention, antagonists of TRPM4 are employed in methods and/or compositions. Antagonists may be of any kind, but in particular embodiments the antagonists are proteins, nucleic acids, small molecules, and so forth. In specific cases, the TRPM4 antagonists comprise flufenamic acid and/or 9-phenanthrol and/or spermine and/or decavanadate and/or BTP2 and/or anti-TRPM4 antibodies. In specific cases, the TRPM4 nucleic acid antagonists comprises RNAi, such as siRNA or shRNA or antisense oligodeoxynucleotides (AS-ODN).

spinal cord injury = assay: Outcome from spinal cord injury after antisense oligodeoxynucleotides; type: in vivo; conditions: TRPM4-AS1 and TRPM4-AS2 used together; phosphorothioated
Source text: as §1

SUR1-TRPM4 channel = target: T1, SUR1-TRPM4 channel (Homo sapiens, UniProt Q09428+Q8TD43); assay: Patch clamp recordings of SUR1-TRPM4 channel currents in mechanically stimulated endothelial cells; type: cell-based; conditions: endothelial cells after mechanical stimulation; currents carried by Cs+ ions
T1 construct: endogenous in cells
T1 sequence (Q09428 whole entry): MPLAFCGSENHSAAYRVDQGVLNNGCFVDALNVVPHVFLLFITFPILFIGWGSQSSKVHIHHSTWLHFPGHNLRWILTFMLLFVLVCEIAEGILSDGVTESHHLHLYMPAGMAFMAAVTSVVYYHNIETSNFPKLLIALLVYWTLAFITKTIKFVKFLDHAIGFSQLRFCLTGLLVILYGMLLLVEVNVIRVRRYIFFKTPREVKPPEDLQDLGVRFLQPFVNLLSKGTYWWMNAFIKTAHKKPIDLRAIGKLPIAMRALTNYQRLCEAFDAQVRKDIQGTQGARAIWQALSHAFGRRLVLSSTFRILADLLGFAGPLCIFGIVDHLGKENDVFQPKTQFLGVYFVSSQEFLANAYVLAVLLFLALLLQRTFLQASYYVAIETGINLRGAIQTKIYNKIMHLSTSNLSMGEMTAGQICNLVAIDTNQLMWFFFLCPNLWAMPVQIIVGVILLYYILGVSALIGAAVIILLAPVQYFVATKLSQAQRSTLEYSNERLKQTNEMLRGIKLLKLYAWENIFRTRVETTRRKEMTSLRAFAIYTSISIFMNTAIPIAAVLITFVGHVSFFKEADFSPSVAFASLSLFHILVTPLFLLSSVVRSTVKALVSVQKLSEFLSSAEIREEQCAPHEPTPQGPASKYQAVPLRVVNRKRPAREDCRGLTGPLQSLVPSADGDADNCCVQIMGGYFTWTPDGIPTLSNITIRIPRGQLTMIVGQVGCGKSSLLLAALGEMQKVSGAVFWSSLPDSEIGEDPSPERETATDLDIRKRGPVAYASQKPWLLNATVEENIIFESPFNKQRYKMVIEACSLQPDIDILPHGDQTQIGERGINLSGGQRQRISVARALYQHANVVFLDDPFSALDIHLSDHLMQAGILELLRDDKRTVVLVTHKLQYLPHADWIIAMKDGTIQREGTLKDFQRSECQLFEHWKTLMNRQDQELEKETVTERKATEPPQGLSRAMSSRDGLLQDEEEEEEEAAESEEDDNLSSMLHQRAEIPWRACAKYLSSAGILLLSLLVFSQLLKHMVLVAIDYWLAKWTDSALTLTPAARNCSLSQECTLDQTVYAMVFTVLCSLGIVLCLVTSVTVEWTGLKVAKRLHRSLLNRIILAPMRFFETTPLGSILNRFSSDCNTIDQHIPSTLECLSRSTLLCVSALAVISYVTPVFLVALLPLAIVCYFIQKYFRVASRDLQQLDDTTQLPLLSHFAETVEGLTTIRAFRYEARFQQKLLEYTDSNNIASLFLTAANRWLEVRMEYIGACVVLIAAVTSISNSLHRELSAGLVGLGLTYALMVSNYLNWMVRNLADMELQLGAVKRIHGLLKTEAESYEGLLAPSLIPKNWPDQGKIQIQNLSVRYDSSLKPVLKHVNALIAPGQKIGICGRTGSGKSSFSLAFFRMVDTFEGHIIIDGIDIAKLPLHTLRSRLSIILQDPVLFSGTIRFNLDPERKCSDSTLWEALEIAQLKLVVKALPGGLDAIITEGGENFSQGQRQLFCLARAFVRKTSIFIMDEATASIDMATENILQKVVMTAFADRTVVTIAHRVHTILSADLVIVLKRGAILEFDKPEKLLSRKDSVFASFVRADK
T1 sequence (Q8TD43 whole entry): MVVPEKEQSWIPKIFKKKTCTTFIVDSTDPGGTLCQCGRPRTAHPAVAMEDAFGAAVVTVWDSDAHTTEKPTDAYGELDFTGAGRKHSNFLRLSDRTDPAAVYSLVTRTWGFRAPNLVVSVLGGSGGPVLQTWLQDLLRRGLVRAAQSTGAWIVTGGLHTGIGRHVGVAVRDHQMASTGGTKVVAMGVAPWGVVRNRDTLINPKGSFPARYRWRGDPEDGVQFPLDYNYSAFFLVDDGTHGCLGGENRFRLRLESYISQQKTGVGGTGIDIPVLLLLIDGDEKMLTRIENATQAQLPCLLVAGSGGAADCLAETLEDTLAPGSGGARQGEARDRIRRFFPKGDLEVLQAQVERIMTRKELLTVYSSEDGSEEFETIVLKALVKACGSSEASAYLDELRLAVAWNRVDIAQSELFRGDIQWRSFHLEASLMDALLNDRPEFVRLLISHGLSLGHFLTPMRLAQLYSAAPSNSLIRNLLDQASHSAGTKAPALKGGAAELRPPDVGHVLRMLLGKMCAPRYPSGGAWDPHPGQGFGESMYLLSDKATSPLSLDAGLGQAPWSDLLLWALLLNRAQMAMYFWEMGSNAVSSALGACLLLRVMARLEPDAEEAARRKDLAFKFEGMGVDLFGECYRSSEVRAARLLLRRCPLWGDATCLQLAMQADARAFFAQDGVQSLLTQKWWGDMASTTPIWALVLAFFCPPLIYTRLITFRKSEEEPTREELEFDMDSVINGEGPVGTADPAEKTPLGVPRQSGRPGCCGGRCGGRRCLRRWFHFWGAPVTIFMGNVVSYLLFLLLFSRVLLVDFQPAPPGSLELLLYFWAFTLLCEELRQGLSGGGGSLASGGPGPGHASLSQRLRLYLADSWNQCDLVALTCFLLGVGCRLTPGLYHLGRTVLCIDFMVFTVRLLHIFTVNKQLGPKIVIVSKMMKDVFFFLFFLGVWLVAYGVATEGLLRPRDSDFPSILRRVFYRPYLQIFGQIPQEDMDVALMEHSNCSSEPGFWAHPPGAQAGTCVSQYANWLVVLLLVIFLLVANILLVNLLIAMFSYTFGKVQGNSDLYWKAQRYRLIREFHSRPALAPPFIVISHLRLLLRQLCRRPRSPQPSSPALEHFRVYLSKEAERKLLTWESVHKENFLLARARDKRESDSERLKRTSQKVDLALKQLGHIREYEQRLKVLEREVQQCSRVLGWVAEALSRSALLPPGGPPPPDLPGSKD
Protocol: FIGS. 2A and 2B. Mechanical stimulation of endothelial cells causes upregulation of functional SUR1-TRPM4 channels. Endothelial cells were cultured in dishes with flexible bottoms and the cells were mechanically stimulated by applying puffs of air to the underside of the dishes. […] FIG. 2B: Amplitudes of SUR1-TRPM4 channel currents measured at −50 mV under control conditions before mechanical activation (CTR), following mechanical activation (STR), following mechanical activation in the presence of the NF-kappaB inhibitor, pyrrolidine dithiocarbamate (PDTC) as negative control, and without mechanical activation, in the presence of tumor necrosis factor alpha (TNFalpha), as positive control.
Endothelial cells were cultured in dishes with flexible bottoms and the cells were mechanically stimulated by applying puffs of air to the underside of the dishes. […] NFκB activation caused robust transcriptional upregulation of the SUR1-TRPM4 channels 6 hours later (FIGS. 1B and 1C). […] The critical role of the mechanosensitive transcription factor, NF-κB, in Sur1-Trpm4 channel upregulation was confirmed using the NF-κB inhibitor, pyrrolidine dithiocarbamate (PDTC) as negative control, and the NF-κB activator, tumor necrosis factor α (TNFα), as positive control (FIG. 2B).

Compound | reducing TRPM4 expression (TRPM4) | improving outcome from spinal cord injury (spinal cord injury) | effect on SUR1-TRPM4 channel currents (patch clamp) (SUR1-TRPM4 channel)
5′-GTGTGCATCGCTGTCCCACA-3′ (chemistry not given here) [TRPM4-AS1, antisense oligodeoxynucleotide against TRPM4] | highly effective | highly effective | –
5′-CTGCGATAGCACTCGCCAAA-3′ (chemistry not given here) [TRPM4-AS2, antisense oligodeoxynucleotide against TRPM4] | highly effective | highly effective | –
CNC[C@H](O)[C@@H](O)[C@H](O)[C@H](O)CO [N-methyl-D-glucamine] | – | – | channel blockade

From patent US10900040B2, “Methods of reducing or preventing intimal damage caused by mechanical stimulation of endothelial cells” (University of Maryland, Baltimore, priority 2015, dated 2021)
